Reference: patent US8283291B2, “Herbicidal composition” (Kumiai Chemical Industry Co., Ltd., priority 2006, dated 2012)

Experiments:
[1] = test system: soybean (GLXMA); experiment: Test on herbicidal effects against weeds and phytotoxicity by foliage treatment in upland field; type: in vivo; settings: 21st day
Description: (§1) In a plastic pot of 11 cm in length×11 cm in width×11 cm in depth, the upland soil was filled, and seeds of corn (ZEAMX), soybean (GLXMA), greenfoxtail (SETVI), shattercane (SORVU), redroot pigweed (AMARE), Ipomoea lacunosa L. (IPOLA) and velvetleaf (ABUTH) were sown and covered with soil.
(§2) Then, cultivation was carried out in a greenhouse for 10 days. Then, a wettable powder prepared in accordance with Formulation Example 1 was weighed so that active ingredients would be the prescribed amounts, […] spray at a rate of 500 liter per 1 hectare. Thereafter, cultivation was carried out in a greenhouse, and on the 21st day after the treatment, the herbicidal effects and phytotoxicity were examined in accordance with the standards as identified in Table 15.

[2] = test system: corn (ZEAMX); experiment: as above; type: in vivo; settings: 21st day
Description: as §1, §2

[3] = test system: corn (ZEAMX); experiment: Test on effects of reducing phytotoxicity against corn by upland soil treatment; type: in vivo; settings: 21st day
Description: In a plastic pot of 11 cm in length×11 cm in width×11 cm in depth, upland soil was filled, and seeds of corn (ZEAMX) were sown and covered with soil. A wettable powder prepared in accordance with Formulation Example 1 was weighed so that the active ingredients would be the prescribed amounts, diluted with water and uniformly applied to the soil surface by means of a small size spray at a rate of 500 liter per 1 hectare. Then, cultivation was carried out in a greenhouse, and on the 21st day after the treatment, the phytotoxicity against corn was examined in accordance with the standards as identified in Table 15.

[4] = test system: Persian speedwell (VERPE); experiment: Test 2 on herbicidal effects against weeds and phytotoxicity by upland soil treatment; type: in vivo; settings: 28th day
Description: (§3) In a plastic pot of 14 cm in length×23 cm in width×8 cm in depth, upland soil was filled, and seeds of soybean (GLXMA), corn (ZEAMX), Ipomoea lacunosa L. (IPOLA) and velvetleaf (ABUTH) were sown and covered with soil. A wettable powder prepared in accordance with Formulation Example 1 was weighed so that the active ingredients became the prescribed amounts, diluted with water and uniformly applied to the soil surface by means of a small size spray at a rate of 500 liters per 1 hectare. Thereafter, cultivation was carried out in a greenhouse, and on the 28th day after the treatment, the herbicidal effects and phytotoxicity were examined in accordance with the standards as identified in Table 15.
(§4) The test on herbicidal effects and phytotoxicity against wheat (TRZAW), common chickweed (STEME) and Persian speedwell (VERPE) was carried out in the same manner as the above Test Example 1.

[5] = test system: common chickweed (STEME); experiment: as above; type: in vivo, Stellaria media; settings: 28th day
Description: as §3, §4

[6] = test system: common chickweed (STEME); experiment: Test 4 on herbicidal effects against weeds and phytotoxicity by upland soil treatment; type: in vivo, Stellaria media; settings: 28th day
Description: as §3
(§5) The test on herbicidal effects and phytotoxicity against wheat (TRZAW), italian ryegrass (LOLMU), common chickweed (STEME) and common lambsquater (CHEAL) was carried out in the same manner as the above Test Example 1.

[7] = test system: italian ryegrass (LOLMU); experiment: as above; type: in vivo; settings: 28th day
Description: as §3, §5

[8] = test system: wheat (TRZAW); experiment: as above; type: in vivo; settings: 1000 gai/ha, 28th day
Description: as §3, §5

[9] = test system: velvetleaf (ABUTH); experiment: Test 1 on herbicidal effects against weeds and phytotoxicity by upland soil treatment; type: in vivo, Abutilon theophrasti; settings: 400 gai/ha, 28th day
Description: as §3

[10] = test system: Ipomoea lacunosa L. (IPOLA); experiment: as above; type: in vivo; settings: 400 gai/ha, 28th day
Description: as §3

[11] = test system: soybean (GLXMA); experiment: as above; type: in vivo; settings: 28th day
Description: (§6) In a plastic pot of 14 cm in length×23 cm in width×8 cm in depth, upland soil was filled, and seeds of soybean (GLXMA), corn (ZEAMX), Ipomoea lacunosa L. (IPOLA) and velvetleaf (ABUTH) were sown and covered with soil. […] Thereafter, cultivation was carried out in a greenhouse, and on the 28th day after the treatment, the herbicidal effects and phytotoxicity were examined in accordance with the standards as identified in Table 15.

[12] = test system: corn (ZEAMX); experiment: as above; type: in vivo; settings: 28th day
Description: as §6

[13] = test system: common chickweed (STEME); experiment: Test 3 on herbicidal effects against weeds and phytotoxicity by upland soil treatment; type: in vivo, Stellaria media; settings: 28th day
Description: as §3
(§7) The test on herbicidal effects and phytotoxicity against corn (ZEAMX), barnyardgrass (ECHCG), common chickweed (STEME) and common lambsquater (CHEAL) was carried out in the same manner as the above Test Example 1.

[14] = test system: barnyardgrass (ECHCG); experiment: as above; type: in vivo, Echinochloa crus-galli; settings: 28th day
Description: as §3, §7

[15] = test system: common lambsquater (CHEAL); experiment: as above; type: in vivo, Chenopodium album; settings: 28th day
Description: as §3, §7

[16] = test system: wheat (TRZAW); experiment: Test 2 on herbicidal effects against weeds and phytotoxicity by upland soil treatment; type: in vivo; settings: 28th day
Description: as §3, §4

CCOC(=O)c1ccccc1S(=O)(=O)NC(=O)Nc1nc(Cl)cc(OC)n1 [Chlorimuron-ethyl]
phytotoxicity GLXMA ([1]; 6.3 gai/ha): 0 (Herbicidal effect or phytotoxicity of at least 0% and less than 10%) | phytotoxicity ZEAMX ([2]; 6.3 gai/ha): 4 (Herbicidal effect or phytotoxicity of at least 40% and less than 50%)

CC1COc2ccccc2N1C(=O)C(Cl)Cl (stereo not shown) [Benoxacor]
phytotoxicity against corn ZEAMX ([3]; 50 gai/ha): 0 (Herbicidal effect or phytotoxicity of at least 0% and less than 10%)

CC(C)c1ccc(NC(=O)N(C)C)cc1 [Isoproturon]
herbicidal effect VERPE ([4]; 375 gai/ha): 5 (Herbicidal effect or phytotoxicity of at least 50% and less than 60%) | herbicidal effect STEME ([5]; 375 gai/ha): 6 (Herbicidal effect or phytotoxicity of at least 60% and less than 70%)

CS(=O)(=O)c1ccc(C(=O)C2C(=O)CCCC2=O)c(Cl)c1 [Sulcotrione]
phytotoxicity GLXMA ([1]; 25 gai/ha): 6 (Herbicidal effect or phytotoxicity of at least 60% and less than 70%) | phytotoxicity ZEAMX ([2]; 25 gai/ha): 0 (Herbicidal effect or phytotoxicity of at least 0% and less than 10%) | phytotoxicity against corn ZEAMX ([3]; 1000 gai/ha): 1 (Herbicidal effect or phytotoxicity of at least 10% and less than 20%)

CCOC(=O)C(C)Oc1ccc(Oc2cnc3cc(Cl)ccc3n2)cc1 (stereo not shown) [Quizalofop-ethyl]
phytotoxicity GLXMA ([1]; 25 gai/ha): 0 (Herbicidal effect or phytotoxicity of at least 0% and less than 10%) | phytotoxicity ZEAMX ([2]; 25 gai/ha): 10 (Herbicidal effect or phytotoxicity of 100%)

CC(C)N(C(=O)SCC(Cl)=C(Cl)Cl)C(C)C [Triallate]
herbicidal effect STEME ([6]; 1000 gai/ha): 2 (Herbicidal effect or phytotoxicity of at least 20% and less than 30%) | herbicidal effect LOLMU ([7]; 1000 gai/ha): 2 (Herbicidal effect or phytotoxicity of at least 20% and less than 30%) | phytotoxicity TRZAW [8]: 0 (Herbicidal effect or phytotoxicity of at least 0% and less than 10%)

COc1cc(OC)nc(Oc2cccc(Oc3nc(OC)cc(OC)n3)c2C(=O)O)n1 [Bispyribac-sodium]
phytotoxicity GLXMA ([1]; 12.5 gai/ha): 9 (Herbicidal effect or phytotoxicity of at least 90% and less than 100%) | phytotoxicity ZEAMX ([2]; 12.5 gai/ha): 0 (Herbicidal effect or phytotoxicity of at least 0% and less than 10%)

COC(=O)CSc1cc(/N=c2\sc(=O)n3n2CCCC3)c(F)cc1Cl [Fluthiacet-methyl]
phytotoxicity GLXMA ([1]; 10 gai/ha): 0 (Herbicidal effect or phytotoxicity of at least 0% and less than 10%) | phytotoxicity ZEAMX ([2]; 10 gai/ha): 0 (Herbicidal effect or phytotoxicity of at least 0% and less than 10%)

COC[C@H](C)N(C(=O)CCl)c1c(C)csc1C [Dimethenamid-P]
herbicidal effect ABUTH [9]: 7 (Herbicidal effect or phytotoxicity of at least 70% and less than 80%) | herbicidal effect IPOLA [10]: 5 (Herbicidal effect or phytotoxicity of at least 50% and less than 60%)

CNc1cnn(-c2cccc(C(F)(F)F)c2)c(=O)c1Cl [Norflurazon]
phytotoxicity GLXMA ([11]; 400 gai/ha): 1 (Herbicidal effect or phytotoxicity of at least 10% and less than 20%) | phytotoxicity ZEAMX ([12]; 400 gai/ha): 9 (Herbicidal effect or phytotoxicity of at least 90% and less than 100%)

C[C@H](NC(=O)[C@H](C)NC(=O)[C@@H](N)CCP(C)(=O)O)C(=O)O [Bilanafos]
phytotoxicity GLXMA ([1]; 1000 gai/ha): 9 (Herbicidal effect or phytotoxicity of at least 90% and less than 100%) | phytotoxicity ZEAMX ([2]; 1000 gai/ha): 9 (Herbicidal effect or phytotoxicity of at least 90% and less than 100%)

C[n+]1ccc(-c2cc[n+](C)cc2)cc1 [Paraquat]
phytotoxicity GLXMA ([1]; 500 gai/ha): 10 (Herbicidal effect or phytotoxicity of 100%) | phytotoxicity ZEAMX ([2]; 500 gai/ha): 6 (Herbicidal effect or phytotoxicity of at least 60% and less than 70%)

CCCN(CCC)C(=O)SCc1ccccc1 [Prosulfocarb]
herbicidal effect STEME ([13]; 1600 gai/ha): 5 (Herbicidal effect or phytotoxicity of at least 50% and less than 60%) | herbicidal effect ECHCG ([14]; 1600 gai/ha): 2 (Herbicidal effect or phytotoxicity of at least 20% and less than 30%) | herbicidal effect CHEAL ([15]; 1600 gai/ha): 5 (Herbicidal effect or phytotoxicity of at least 50% and less than 60%)

CN(C)C(=O)Nc1ccc(Cl)c(Cl)c1 [Diuron]
phytotoxicity GLXMA ([11]; 800 gai/ha): 8 (Herbicidal effect or phytotoxicity of at least 80% and less than 90%) | phytotoxicity ZEAMX ([12]; 800 gai/ha): 8 (Herbicidal effect or phytotoxicity of at least 80% and less than 90%)

Cn1nc(C(F)(F)F)c(CS(=O)(=O)C2=NOC(C)(C)C2)c1OC(F)F [3-0054, 3-[(5-difluoromethoxy-1-methyl-3-trifluoromethylpyrazol-4-yl)methylsulfonyl]-4,5-dihydro-5,5-dimethylisoxazole]
herbicidal effect STEME ([13]; 62.5 gai/ha): 5 (Herbicidal effect or phytotoxicity of at least 50% and less than 60%) | herbicidal effect STEME ([6]; 50 gai/ha): 4 (Herbicidal effect or phytotoxicity of at least 40% and less than 50%) | herbicidal effect VERPE ([4]; 18.8 gai/ha): 7 (Herbicidal effect or phytotoxicity of at least 70% and less than 80%) | herbicidal effect STEME ([5]; 18.8 gai/ha): 5 (Herbicidal effect or phytotoxicity of at least 50% and less than 60%) | herbicidal effect ECHCG ([14]; 62.5 gai/ha): 10 (Herbicidal effect or phytotoxicity of 100%) | herbicidal effect LOLMU ([7]; 50 gai/ha): 8 (Herbicidal effect or phytotoxicity of at least 80% and less than 90%) | herbicidal effect CHEAL ([15]; 62.5 gai/ha): 4 (Herbicidal effect or phytotoxicity of at least 40% and less than 50%)

CC1(C)CON(Cc2ccccc2Cl)C1=O [Clomazone]
phytotoxicity GLXMA ([11]; 200 gai/ha): 0 (Herbicidal effect or phytotoxicity of at least 0% and less than 10%)

CCC/C(=N\OCC)C1=C(O)CC(CC(C)SCC)CC1=O (stereo not shown) [Sethoxydim]
phytotoxicity GLXMA ([1]; 100 gai/ha): 0 (Herbicidal effect or phytotoxicity of at least 0% and less than 10%) | phytotoxicity ZEAMX ([2]; 100 gai/ha): 9 (Herbicidal effect or phytotoxicity of at least 90% and less than 100%)

CCCN(CCC)c1c([N+](=O)[O-])cc(C(F)(F)F)cc1[N+](=O)[O-] [Trifluralin]
herbicidal effect VERPE ([4]; 250 gai/ha): 7 (Herbicidal effect or phytotoxicity of at least 70% and less than 80%) | phytotoxicity TRZAW ([16]; 250 gai/ha): 0 (Herbicidal effect or phytotoxicity of at least 0% and less than 10%) | herbicidal effect STEME ([5]; 250 gai/ha): 10 (Herbicidal effect or phytotoxicity of 100%)

CCNc1nc(Cl)nc(NC(C)C)n1 [Atrazine]
phytotoxicity against corn ZEAMX ([3]; 2500 gai/ha): 0 (Herbicidal effect or phytotoxicity of at least 0% and less than 10%)

CC(C)N1C(=O)c2ccccc2NS1(=O)=O [Bentazone]
phytotoxicity GLXMA ([1]; 400 gai/ha): 0 (Herbicidal effect or phytotoxicity of at least 0% and less than 10%) | phytotoxicity ZEAMX ([2]; 400 gai/ha): 0 (Herbicidal effect or phytotoxicity of at least 0% and less than 10%)

O=C(Nc1ccc(F)cc1)c1cccc(Oc2cccc(C(F)(F)F)c2)n1 [Picolinafen]
herbicidal effect VERPE ([4]; 16 gai/ha): 6 (Herbicidal effect or phytotoxicity of at least 60% and less than 70%) | phytotoxicity TRZAW ([16]; 16 gai/ha): 0 (Herbicidal effect or phytotoxicity of at least 0% and less than 10%) | herbicidal effect STEME ([5]; 16 gai/ha): 5 (Herbicidal effect or phytotoxicity of at least 50% and less than 60%)
